Assay results from US10081624B2, “Heterocyclic compound” (Takeda Pharmaceutical Company Limited, priority 2014, dated 2018).

Experiments:
HDAC1 enzyme = target: T1, HDAC1 enzyme (Homo sapiens, UniProt Q13547); experiment: HDAC1 enzyme inhibitory assay (HDAC-Glo I/II Assay kit); format: biochemical; conditions: 1 μM test compound; read-out: HDAC1 inhibitory rate (%) (1 μM)
T1 construct: prepared by transducing full length HDAC1 and HDAC6 genes into Sf-9 insect cells; GST; purchased SignalChem; host or cells: Sf-9 insect cells
How it was run: (§1)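 Relative activity was calculated from luminescence, with wells lacking enzyme defined as 100% inhibition. The enzymes were full-length HDAC1 or HDAC6 from Sf-9 cells, preincubated with test compound for 60 min before a 20-min substrate-developer reaction at room temperature.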

HDAC6 enzyme = target: T2, HDAC6 enzyme (Homo sapiens, UniProt Q9UBN7); experiment: HDAC6 enzyme inhibitory assay (HDAC-Glo I/II Assay kit); format: biochemical; conditions: 1 μM test compound; read-out: HDAC6 inhibitory rate (%) (1 μM)
T2 construct: prepared by transducing full length HDAC1 and HDAC6 genes into Sf-9 insect cells; GST; purchased SignalChem; host or cells: Sf-9 insect cells
T2 sequence (Q9UBN7 1-1215): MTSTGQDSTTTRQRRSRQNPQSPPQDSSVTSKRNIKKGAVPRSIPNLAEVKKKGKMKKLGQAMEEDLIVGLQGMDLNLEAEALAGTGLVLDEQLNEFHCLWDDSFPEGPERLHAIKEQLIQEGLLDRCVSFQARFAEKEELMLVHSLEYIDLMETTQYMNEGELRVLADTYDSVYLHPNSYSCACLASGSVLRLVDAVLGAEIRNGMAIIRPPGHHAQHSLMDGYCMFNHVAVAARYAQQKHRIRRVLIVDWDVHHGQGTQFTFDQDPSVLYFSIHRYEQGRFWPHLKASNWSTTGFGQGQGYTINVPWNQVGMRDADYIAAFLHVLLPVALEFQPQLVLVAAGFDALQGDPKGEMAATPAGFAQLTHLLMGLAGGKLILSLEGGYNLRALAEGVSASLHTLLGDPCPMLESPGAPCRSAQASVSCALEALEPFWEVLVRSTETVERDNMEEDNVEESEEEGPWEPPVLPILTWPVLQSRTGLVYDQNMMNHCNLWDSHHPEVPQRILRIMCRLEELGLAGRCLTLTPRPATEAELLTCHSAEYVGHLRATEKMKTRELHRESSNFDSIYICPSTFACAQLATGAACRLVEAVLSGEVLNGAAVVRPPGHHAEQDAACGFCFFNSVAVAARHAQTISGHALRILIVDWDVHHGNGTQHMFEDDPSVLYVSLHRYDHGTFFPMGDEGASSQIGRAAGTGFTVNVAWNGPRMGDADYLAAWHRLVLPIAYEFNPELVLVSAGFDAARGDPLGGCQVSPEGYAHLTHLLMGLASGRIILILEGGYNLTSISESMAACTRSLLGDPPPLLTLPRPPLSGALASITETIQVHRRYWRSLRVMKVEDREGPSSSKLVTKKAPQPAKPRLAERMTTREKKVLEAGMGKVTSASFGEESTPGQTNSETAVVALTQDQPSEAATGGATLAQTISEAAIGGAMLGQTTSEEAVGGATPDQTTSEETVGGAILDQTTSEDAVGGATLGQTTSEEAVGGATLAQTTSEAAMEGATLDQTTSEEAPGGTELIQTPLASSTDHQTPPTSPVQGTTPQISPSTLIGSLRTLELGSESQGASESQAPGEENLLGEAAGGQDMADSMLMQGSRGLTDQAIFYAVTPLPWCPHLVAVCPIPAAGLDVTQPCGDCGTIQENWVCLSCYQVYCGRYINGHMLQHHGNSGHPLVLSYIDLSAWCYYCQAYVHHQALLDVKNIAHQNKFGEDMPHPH
How it was run: as §1

T1 sequence (Q13547 whole entry): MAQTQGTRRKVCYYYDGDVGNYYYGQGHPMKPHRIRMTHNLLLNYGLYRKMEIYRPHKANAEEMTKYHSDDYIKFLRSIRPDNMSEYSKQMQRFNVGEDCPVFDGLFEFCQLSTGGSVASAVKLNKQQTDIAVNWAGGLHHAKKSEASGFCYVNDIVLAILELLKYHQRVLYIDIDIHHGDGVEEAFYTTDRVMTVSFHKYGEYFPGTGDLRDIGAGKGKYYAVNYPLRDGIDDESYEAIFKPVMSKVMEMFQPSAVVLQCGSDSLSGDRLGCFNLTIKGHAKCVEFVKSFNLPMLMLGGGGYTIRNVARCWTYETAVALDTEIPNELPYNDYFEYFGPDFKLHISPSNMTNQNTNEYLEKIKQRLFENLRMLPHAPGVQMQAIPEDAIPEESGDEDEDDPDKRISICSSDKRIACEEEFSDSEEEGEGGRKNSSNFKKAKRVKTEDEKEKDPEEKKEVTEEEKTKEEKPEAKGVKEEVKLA

## O=C(NCCO)c1cccc(C(=O)N2CCOC[C@@H]2CNC(=O)c2ccc(-c3noc(C(F)(F)F)n3)cc2)c1 [Example 271, N-(2-hydroxyethyl)-3-(((3S)-3-(((4-(5-(trifluoromethyl)-1,2,4-oxadiazol-3-yl)benzoyl)amino)methyl)morpholin-4-yl)carbonyl)benzamide]
HDAC1 enzyme
  inhibition at 1 µM: 7%
HDAC6 enzyme
  inhibition at 1 µM: 94%

## COC[C@H]1CCCN1C(=O)N1CCOC[C@@H]1CNC(=O)c1ccc(-c2noc(C(F)(F)F)n2)cc1 [Example 272, N-(((3S)-4-(((2R)-2-(methoxymethyl)pyrrolidin-1-yl)carbonyl)morpholin-3-yl)methyl)-4-(5-(trifluoromethyl)-1,2,4-oxadiazol-3-yl)benzamide]
HDAC1 enzyme
  inhibition at 1 µM: 5%
HDAC6 enzyme
  inhibition at 1 µM: 99%

## COC[C@@H]1CCCN1C(=O)N1CCOC[C@@H]1CNC(=O)c1ccc(-c2noc(C(F)(F)F)n2)cc1 [Example 273, N-(((3S)-4-(((2S)-2-(methoxymethyl)pyrrolidin-1-yl)carbonyl)morpholin-3-yl)methyl)-4-(5-(trifluoromethyl)-1,2,4-oxadiazol-3-yl)benzamide]
HDAC1 enzyme
  inhibition at 1 µM: 3%
HDAC6 enzyme
  inhibition at 1 µM: 87%

## O=C(NC[C@H]1COCCN1C(=O)N1CC[C@H](O)C1)c1ccc(-c2noc(C(F)(F)F)n2)cc1 [Example 274, N-(((3S)-4-(((3S)-3-hydroxypyrrolidin-1-yl)carbonyl)morpholin-3-yl)methyl)-4-(5-(trifluoromethyl)-1,2,4-oxadiazol-3-yl)benzamide]
HDAC1 enzyme
  inhibition at 1 µM: 3%
HDAC6 enzyme
  inhibition at 1 µM: 94%

## O=C(NC[C@H]1COCCN1C(=O)N1CC[C@@H](O)C1)c1ccc(-c2noc(C(F)(F)F)n2)cc1 [Example 275, N-(((3S)-4-(((3R)-3-hydroxypyrrolidin-1-yl)carbonyl)morpholin-3-yl)methyl)-4-(5-(trifluoromethyl)-1,2,4-oxadiazol-3-yl)benzamide]
HDAC1 enzyme
  inhibition at 1 µM: 5%
HDAC6 enzyme
  inhibition at 1 µM: 85%

## O=C(NC[C@H]1COCCN1C(=O)N1CCCC(CO)C1)c1ccc(-c2noc(C(F)(F)F)n2)cc1 (stereo partly drawn) [Example 276, N-(((3S)-4-((3-(hydroxymethyl)piperidin-1-yl)carbonyl)morpholin-3-yl)methyl)-4-(5-(trifluoromethyl)-1,2,4-oxadiazol-3-yl)benzamide]
HDAC1 enzyme
  inhibition at 1 µM: 9%
HDAC6 enzyme
  inhibition at 1 µM: 89%

## O=C(NC[C@H]1COCCN1C(=O)N1CCC(F)(F)CC1)c1ccc(-c2noc(C(F)(F)F)n2)cc1 [Example 277, N-(((3S)-4-((4,4-difluoropiperidin-1-yl)carbonyl)morpholin-3-yl)methyl)-4-(5-(trifluoromethyl)-1,2,4-oxadiazol-3-yl)benzamide]
HDAC1 enzyme
  inhibition at 1 µM: 8%
HDAC6 enzyme
  inhibition at 1 µM: 101%

## O=C(NC[C@H]1COCCN1C(=O)N1CCC(CO)CC1)c1ccc(-c2noc(C(F)(F)F)n2)cc1 [Example 278, N-(((3S)-4-((4-(hydroxymethyl)piperidin-1-yl)carbonyl)morpholin-3-yl)methyl)-4-(5-(trifluoromethyl)-1,2,4-oxadiazol-3-yl)benzamide]
HDAC1 enzyme
  inhibition at 1 µM: 6%
HDAC6 enzyme
  inhibition at 1 µM: 90%

## O=C(NC[C@H]1COCCN1C(=O)N1CCC(CCO)CC1)c1ccc(-c2noc(C(F)(F)F)n2)cc1 [Example 279, N-(((3S)-4-((4-(2-hydroxyethyl)piperidin-1-yl)carbonyl)morpholin-3-yl)methyl)-4-(5-(trifluoromethyl)-1,2,4-oxadiazol-3-yl)benzamide]
HDAC1 enzyme
  inhibition at 1 µM: 10%
HDAC6 enzyme
  inhibition at 1 µM: 90%

## O=C(NC[C@H]1COCCN1C(=O)N1CCCC2(COC2)C1)c1ccc(-c2noc(C(F)(F)F)n2)cc1 [Example 281, N-(((3S)-4-(2-oxa-6-azaspiro[3.5]non-6-ylcarbonyl)morpholin-3-yl)methyl)-4-(5-(trifluoromethyl)-1,2,4-oxadiazol-3-yl)benzamide]
HDAC1 enzyme
  inhibition at 1 µM: 7%
HDAC6 enzyme
  inhibition at 1 µM: 93%

## O=C(NC[C@H]1COCCN1C(=O)N1CCC2(CC1)COC2)c1ccc(-c2noc(C(F)(F)F)n2)cc1 [Example 282, N-(((3S)-4-(2-oxa-7-azaspiro[3.5]non-7-ylcarbonyl)morpholin-3-yl)methyl)-4-(5-(trifluoromethyl)-1,2,4-oxadiazol-3-yl)benzamide]
HDAC1 enzyme
  inhibition at 1 µM: 5%
HDAC6 enzyme
  inhibition at 1 µM: 83%

## NC(=O)[C@@H]1CCCN1C(=O)N1CCOC[C@@H]1CNC(=O)c1ccc(-c2noc(C(F)(F)F)n2)cc1 [Example 283, 1-(((3S)-3-(((4-(5-(trifluoromethyl)-1,2,4-oxadiazol-3-yl)benzoyl)amino)methyl)morpholin-4-yl)carbonyl)-L-prolinamide]
HDAC1 enzyme
  inhibition at 1 µM: -1%
HDAC6 enzyme
  inhibition at 1 µM: 73%

## N#C[C@H]1CCCN1C(=O)N1CCOC[C@@H]1CNC(=O)c1ccc(-c2noc(C(F)(F)F)n2)cc1 [Example 284, N-(((3S)-4-(((2R)-2-cyanopyrrolidin-1-yl)carbonyl)morpholin-3-yl)methyl)-4-(5-(trifluoromethyl)-1,2,4-oxadiazol-3-yl)benzamide]
HDAC1 enzyme
  inhibition at 1 µM: 1%
HDAC6 enzyme
  inhibition at 1 µM: 95%

## N#C[C@@H]1CCCN1C(=O)N1CCOC[C@@H]1CNC(=O)c1ccc(-c2noc(C(F)(F)F)n2)cc1 [Example 285, N-(((3S)-4-(((2S)-2-cyanopyrrolidin-1-yl)carbonyl)morpholin-3-yl)methyl)-4-(5-(trifluoromethyl)-1,2,4-oxadiazol-3-yl)benzamide]
HDAC1 enzyme
  inhibition at 1 µM: 3%
HDAC6 enzyme
  inhibition at 1 µM: 83%

## O=C(NC[C@H]1COCCN1C(=O)N1CCC[C@@H]1C(F)(F)F)c1ccc(-c2noc(C(F)(F)F)n2)cc1 [Example 286, 4-(5-(trifluoromethyl)-1,2,4-oxadiazol-3-yl)-N-(((3S)-4-(((2R)-2-(trifluoromethyl)pyrrolidin-1-yl)carbonyl)morpholin-3-yl)methyl)benzamide]
HDAC1 enzyme
  inhibition at 1 µM: 2%
HDAC6 enzyme
  inhibition at 1 µM: 95%

## O=C(NC[C@H]1COCCN1C(=O)N1CCC[C@H]1C(F)(F)F)c1ccc(-c2noc(C(F)(F)F)n2)cc1 [Example 287, 4-(5-(trifluoromethyl)-1,2,4-oxadiazol-3-yl)-N-(((3S)-4-(((2S)-2-(trifluoromethyl)pyrrolidin-1-yl)carbonyl)morpholin-3-yl)methyl)benzamide]
HDAC1 enzyme
  inhibition at 1 µM: 2%
HDAC6 enzyme
  inhibition at 1 µM: 91%

## C[C@H]1CCCN1C(=O)N1CCOC[C@@H]1CNC(=O)c1ccc(-c2noc(C(F)(F)F)n2)cc1 [Example 288, N-(((3S)-4-(((2S)-2-methylpyrrolidin-1-yl)carbonyl)morpholin-3-yl)methyl)-4-(5-(trifluoromethyl)-1,2,4-oxadiazol-3-yl)benzamide]
HDAC1 enzyme
  inhibition at 1 µM: 3%
HDAC6 enzyme
  inhibition at 1 µM: 102%

## C[C@@H]1CCCN1C(=O)N1CCOC[C@@H]1CNC(=O)c1ccc(-c2noc(C(F)(F)F)n2)cc1 [Example 289, N-(((3S)-4-(((2R)-2-methylpyrrolidin-1-yl)carbonyl)morpholin-3-yl)methyl)-4-(5-(trifluoromethyl)-1,2,4-oxadiazol-3-yl)benzamide]
HDAC1 enzyme
  inhibition at 1 µM: 4%
HDAC6 enzyme
  inhibition at 1 µM: 85%

## O=C(NC[C@H]1COCCN1C(=O)N1CCCOCC1)c1ccc(-c2noc(C(F)(F)F)n2)cc1 [Example 290, N-(((3S)-4-(1,4-oxazepan-4-ylcarbonyl)morpholin-3-yl)methyl)-4-(5-(trifluoromethyl)-1,2,4-oxadiazol-3-yl)benzamide]
HDAC1 enzyme
  inhibition at 1 µM: 3%
HDAC6 enzyme
  inhibition at 1 µM: 97%

## O=C(NC[C@H]1COCCN1C(=O)N1CCCOC(CO)C1)c1ccc(-c2noc(C(F)(F)F)n2)cc1 (stereo partly drawn) [Example 291, N-(((3S)-4-((2-(hydroxymethyl)-1,4-oxazepan-4-yl)carbonyl)morpholin-3-yl)methyl)-4-(5-(trifluoromethyl)-1,2,4-oxadiazol-3-yl)benzamide]
HDAC1 enzyme
  inhibition at 1 µM: 1%
HDAC6 enzyme
  inhibition at 1 µM: 90%

## O=C(NC[C@H]1COCCN1C(=O)N1CCCC1c1cccnc1)c1ccc(-c2noc(C(F)(F)F)n2)cc1 (stereo partly drawn) [Example 292, N-(((3S)-4-((2-(pyridin-3-yl)pyrrolidin-1-yl)carbonyl)morpholin-3-yl)methyl)-4-(5-(trifluoromethyl)-1,2,4-oxadiazol-3-yl)benzamide]
HDAC1 enzyme
  inhibition at 1 µM: 2%
HDAC6 enzyme
  inhibition at 1 µM: 76%
